We go through 10 compounds from ChEMBL document CHEMBL1201862, “PubChem BioAssay data set” (2004).

SMILES strings stand for the structures.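 96-well plates; 48 h exposure; 5 concentrations. Endpoints by linear interpolation between flanking doses. Not reached: highest tested concentration assigned. GI50 = concentration required for 50% inhibition of growth.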 The source made the active and inactive calls. No stated cut-off is given here; in the data, active = GI50 up to about 1.1 µM and inactive = higher.

Test systems include LOX IMVI; BT-549; HOP-62; MDA-MB-435; NCI-H522; A498; OVCAR-5; SR; HT-29; A549; Malme-3M; NCI-H460; EKVX; CAKI-1; HL-60; SK-MEL-5; ACHN; MDA-N; KM12; HCC 2998.
Holding throughout (assay): NCI anticancer screen, dose series, 48 h

Take `CSc1ccc(/C=C2\N=C(c3ccccc3)N(NC(=O)c3c(Cl)c(Cl)c(Cl)c(Cl)c3-c3nc4ccccc4[nH]3)C2=O)cc1`: the GI50 is 30.9 µM (inactive) in the assay on LOX IMVI; 25.3 µM (inactive) with BT-549; 4.11 µM (inactive) with HOP-62; 3.27 µM (inactive) in the assay on MDA-MB-435; 28.4 µM (inactive) in the assay with NCI-H522; 30.8 µM (inactive) in the assay on A498. Further, the GI50 with OVCAR-5 is 81.7 µM (inactive); in the assay on SR it was 2.22 µM (inactive); with HT-29 it was 36.2 µM (inactive); in the assay on A549, 30.1 µM (inactive); with Malme-3M, 30.1 µM (inactive); in the assay with NCI-H460, 4.43 µM (inactive). Moreover, the GI50 is 25.5 µM (inactive) in the assay on EKVX; 21.7 µM (inactive) in the assay on CAKI-1; 23.7 µM (inactive) in the assay with HL-60; 21.7 µM (inactive) with SK-MEL-5; 28.8 µM (inactive) in the assay on ACHN; 6.87 µM (inactive) in the assay with MDA-N. Moreover, the GI50 is 6.84 µM (inactive) in the assay with KM12 and 9.59 µM (inactive) in the assay with HCC 2998.
For the compound `COc1ccc(N2CN3OC(=O)N(c4ccc(OC)cc4)[C@@]3(c3ccccc3)C2)cc1`, the GI50 was 23 µM (inactive) with LOX IMVI; 21.5 µM (inactive) in the assay with BT-549; 32.6 µM (inactive) in the assay on HOP-62; 2.4 µM (inactive) in the assay with MDA-MB-435; 10.5 µM (inactive) in the assay with NCI-H522; 19.5 µM (inactive) in the assay with A498. For the same compound, the GI50 was 54.6 µM (inactive) with OVCAR-5; 2.79 µM (inactive) in the assay on SR; 6.49 µM (inactive) in the assay with HT-29; 29 µM (inactive) with A549; 10.8 µM (inactive) in the assay on Malme-3M; 16.6 µM (inactive) in the assay on NCI-H460. For the same compound, the GI50 in the assay with EKVX was 23.2 µM (inactive); in the assay with CAKI-1 it was 19.1 µM (inactive); with HL-60 it was 2.77 µM (inactive); with SK-MEL-5, 11.9 µM (inactive); with ACHN it was 61.9 µM (inactive); with MDA-N it was 3.29 µM (inactive). Besides, the GI50 was 6.46 µM (inactive) in the assay on KM12 and 11.5 µM (inactive) in the assay with HCC 2998.
Take `Cc1ccc(S(=O)(=O)N2C[C@@H]3CC[C@]4(CO[Si](C)(C)C(C)(C)C)N[C@@H](c5ccccc5)[C@H]2[C@H]34)cc1`: the GI50 with LOX IMVI was 28 µM (inactive); with BT-549, 20.4 µM (inactive); with HOP-62, 44.2 µM (inactive); with MDA-MB-435, 39.2 µM (inactive); in the assay on NCI-H522, 11.6 µM (inactive); in the assay with A498, 48.8 µM (inactive). For the same compound, the GI50 in the assay with OVCAR-5 was 77.8 µM (inactive); in the assay with SR it was 16.2 µM (inactive); in the assay with HT-29 it was 13.2 µM (inactive); with A549, 22.4 µM (inactive); in the assay with Malme-3M, 18.6 µM (inactive); in the assay with NCI-H460, 26.1 µM (inactive). Besides, the GI50 in the assay on EKVX is 34.2 µM (inactive); with CAKI-1, 27.2 µM (inactive); in the assay with HL-60, 12.7 µM (inactive); with SK-MEL-5, 13.8 µM (inactive); with ACHN it was 37.2 µM (inactive); in the assay with MDA-N it was 29.2 µM (inactive). The figures for the GI50 with KM12 and in the assay with HCC 2998 were 26.5 µM (inactive) and 18.4 µM (inactive), respectively.
Take `COc1ncc(/C=C2\OC(=O)c3ccccc32)c(OC)n1`: the GI50 in the assay on LOX IMVI was 7.16 µM (inactive); in the assay with BT-549, 0.402 µM (active); in the assay on HOP-62 it was 12.1 µM (inactive); in the assay with MDA-MB-435 it was 77.8 µM (inactive); with NCI-H522, 26.1 µM (inactive); in the assay with A498 it was 12.3 µM (inactive). Besides, the GI50 in the assay with OVCAR-5 is > 100 µM (inactive); in the assay with SR it was 30.1 µM (inactive); with HT-29, 64.6 µM (inactive); with A549 it was 17.5 µM (inactive); in the assay with Malme-3M, 10.7 µM (inactive); with NCI-H460, 17.9 µM (inactive). Besides, the GI50 with EKVX is 23.5 µM (inactive); in the assay with CAKI-1 it was 0.21 µM (active); in the assay on HL-60 it was > 100 µM (inactive); in the assay with SK-MEL-5, 9.95 µM (inactive); in the assay with ACHN it was 24.4 µM (inactive); in the assay on MDA-N it was 50 µM (inactive). The figures for the GI50 in the assay with KM12 and in the assay on HCC 2998 were > 100 µM (inactive) and 76 µM (inactive), respectively.
Regarding `N=C(N)NS(=O)(=O)c1ccc(NC(=O)c2ccc3nc4ccccc4c(Nc4ccc(S(N)(=O)=O)cc4)c3c2)cc1`, the GI50 in the assay on LOX IMVI, in the assay with BT-549, in the assay with HOP-62, in the assay with MDA-MB-435, with NCI-H522 and with A498 was > 100 µM (inactive) each time. Further, the GI50 in the assay with OVCAR-5, in the assay on SR, in the assay with HT-29, with A549, in the assay with Malme-3M and in the assay with NCI-H460 was > 100 µM (inactive) in each case. For the same compound, the GI50 in the assay with EKVX, with CAKI-1, with HL-60, in the assay on SK-MEL-5, in the assay with ACHN and in the assay on MDA-N was > 100 µM (inactive) throughout. For the same compound, the GI50 in the assay with KM12 and in the assay on HCC 2998 was > 100 µM (inactive) throughout.
As for `CCCC(CCC)C(=O)O` [VALPROIC ACID], the GI50 in the assay with LOX IMVI was 6280 µM (inactive); with BT-549 it was 12200 µM (inactive); in the assay with HOP-62, > 100 µM (inactive); in the assay on MDA-MB-435, 10900 µM (inactive); in the assay on NCI-H522 it was 3240 µM (inactive); with A498, 532 µM (inactive). Moreover, the GI50 with OVCAR-5 is > 100 µM (inactive); in the assay on SR it was 8510 µM (inactive); with HT-29, 3010 µM (inactive); with A549, 9060 µM (inactive); with Malme-3M, 4400 µM (inactive); in the assay on NCI-H460 it was 4310 µM (inactive). Further, the GI50 in the assay with EKVX is > 100 µM (inactive); with CAKI-1 it was 7480 µM (inactive); in the assay with HL-60, 10300 µM (inactive); in the assay with SK-MEL-5, 2740 µM (inactive); with ACHN, 5450 µM (inactive); with MDA-N it was > 100 µM (inactive). For the same compound, the GI50 was 14300 µM (inactive) in the assay on KM12 and 5710 µM (inactive) in the assay on HCC 2998.
In the case of `CC(CC(=O)CO[C@H]1[C@H](O)[C@@H](O)[C@@H](O)[C@@H]2NC(=O)c3c(cc4c(c3O)OCO4)[C@H]21)OC1OC(CO)C(O)C(O)C1O` (stereo not given in full), the GI50 is 0.255 µM (active) in the assay with LOX IMVI; 0.495 µM (active) in the assay on BT-549; 0.366 µM (active) in the assay with HOP-62; 0.392 µM (active) in the assay with MDA-MB-435; 0.311 µM (active) in the assay on NCI-H522; 1.09 µM (active) with A498. The GI50 with OVCAR-5 is 1.26 µM (inactive); with SR, 0.325 µM (active); with HT-29, 0.452 µM (active); with A549, 0.646 µM (active); in the assay with Malme-3M, 0.488 µM (active); in the assay with NCI-H460 it was 0.432 µM (active). Also, the GI50 is 0.553 µM (active) with EKVX; 0.857 µM (active) in the assay with CAKI-1; 0.372 µM (active) with HL-60; 0.322 µM (active) in the assay on SK-MEL-5; 0.444 µM (active) in the assay with ACHN; 0.508 µM (active) in the assay with MDA-N. For the same compound, the GI50 was 0.3 µM (active) in the assay on KM12 and 0.218 µM (active) with HCC 2998.
As for `Cc1cc(C)c2c(=O)cc(-c3ccccc3)[nH]c2c1`, the GI50 is 2.69 µM (inactive) with LOX IMVI; 7.45 µM (inactive) with BT-549; 5.14 µM (inactive) in the assay on HOP-62; 0.211 µM (active) in the assay with MDA-MB-435; 0.755 µM (active) in the assay on NCI-H522; 1.35 µM (inactive) in the assay on A498. The GI50 was 10.4 µM (inactive) in the assay on OVCAR-5; 2.01 µM (inactive) in the assay on SR; 1.17 µM (inactive) in the assay on HT-29; 1.84 µM (inactive) in the assay with A549; 2.71 µM (inactive) with Malme-3M; 1.92 µM (inactive) with NCI-H460. The GI50 in the assay with EKVX is 4.47 µM (inactive); in the assay on CAKI-1, 3.29 µM (inactive); in the assay with HL-60, 0.479 µM (active); with SK-MEL-5, 1.3 µM (inactive); with ACHN it was 4.65 µM (inactive); in the assay with MDA-N it was 0.284 µM (active). The GI50 was 0.548 µM (active) in the assay with KM12 and 1.38 µM (inactive) with HCC 2998.
Regarding `CC[C@@]1(O)C(=O)OCc2c1cc1n(c2=O)Cc2c-1nc1ccccc1c2/C=N\NC(=O)C(N)CC(C)C` (stereo not given in full), the GI50 was < 0.01 µM (active) in the assay with LOX IMVI; 0.0382 µM (active) in the assay with BT-549; < 0.01 µM (active) in the assay with HOP-62; 0.143 µM (active) in the assay with MDA-MB-435; < 0.0175 µM (active) in the assay with NCI-H522; 0.0314 µM (active) in the assay on A498. Besides, the GI50 is 0.726 µM (active) in the assay with OVCAR-5; < 0.01 µM (active) in the assay with SR; 0.228 µM (active) with HT-29; 0.016 µM (active) in the assay with A549; 0.107 µM (active) with Malme-3M; < 0.01 µM (active) in the assay on NCI-H460. Besides, the GI50 with EKVX is 0.438 µM (active); with CAKI-1, < 0.01 µM (active); with HL-60 it was < 0.01 µM (active); with SK-MEL-5 it was < 0.0128 µM (active); in the assay with ACHN, < 0.01 µM (active); in the assay with MDA-N it was 0.171 µM (active). Further, the GI50 with KM12 was 0.152 µM (active); in the assay with HCC 2998 it was 0.118 µM (active).
For the compound `COc1ccc(Nc2nc3ccccc3n3cccc23)cc1OC`, the GI50 in the assay with LOX IMVI was 14.4 µM (inactive); with BT-549, 18.5 µM (inactive); in the assay on HOP-62 it was 16.3 µM (inactive); in the assay on MDA-MB-435, 13.8 µM (inactive); with NCI-H522, 16 µM (inactive); with A498 it was 17.9 µM (inactive). Further, the GI50 is 32.7 µM (inactive) in the assay on OVCAR-5; 12.8 µM (inactive) with SR; 7.74 µM (inactive) in the assay with HT-29; 17.5 µM (inactive) in the assay with A549; 18.9 µM (inactive) with Malme-3M; 12.9 µM (inactive) with NCI-H460. Also, the GI50 in the assay with EKVX was 25.7 µM (inactive); in the assay on CAKI-1 it was 25.2 µM (inactive); with HL-60, 0.0528 µM (active); in the assay with SK-MEL-5 it was 11.9 µM (inactive); in the assay with ACHN it was 21 µM (inactive); in the assay on MDA-N, 15.9 µM (inactive). Moreover, the GI50 in the assay on KM12 was 13.1 µM (inactive); in the assay on HCC 2998, 14.4 µM (inactive).
